# Tested on: A549 cells transfected with the LARGE portion of the isoform 4 (PC4-5)
# Assay: Cell proliferation by CFSE and flow cytometry in transfected A549 cells
# Type: cell-based, human
# Settings: FIG. 6B; for tumour growth / cancer proliferation in the cells transfected with the "large" subunit of the isoform 4: concentration not stated at this place
# Method: Transfections. A549 cells, lung adenocarcinoma, were transfected by means of marketable kits for 72 hours in transient way with the plasmid vectors: 1. PC4-1, miming the whole isoform 1 of the caspase-4; 2. PC4-2, miming CARD+LARGE subunit; 3. PC4-3, miming LARGE+SMALL subunit of the isoform 1; 4. PC4-4, miming LARGE subunit of the isoform 1 and 5. PC4-5, miming LARGE subunit of the isoform 4 of the caspase-4. The cell proliferation was evaluated through method of CFSE (1 μM), analysed by means of flow cytometry. In some experiments, the transfected cells marked with CFSE, were subjected to treatment with two leader compounds (compound 5: COMP-5; compound 6: COMP-6).
# In order to understand the role of the isoform 4 in the cancer growth, the A549 cells, cells of lung adenocarcinoma, were transfected with specific vectors, containing specific portions of the isoform 1 and isoform 4 as described in FIG. 6A. It was observed that the isoform 4 and 1 are both capable of promoting cancer proliferation when the LARGE subunit is expressed with respect to the other considered structures (FIG. 6A). At last, the cells transfected with the large subunit of the isoform 1 (PC4-4) and 4 (PC4-5) were treated with leading compound with the purpose of verifying a cancer growth decrease.
substance,measurement,setting,value
Ac-VVDC-NH2 [compound 6],cancer growth of the A549 cells transfected with the LARGE portion of the isoform 4,"compound at 10 nM, A549 transfected with PC4-5, CFSE flow cytometry",capable of reducing significantly the cancer growth
same,"tumour growth / cancer proliferation in the cells transfected with the ""large"" subunit of the isoform 4",,can be inhibited
same,"tumour growth / cancer proliferation in the cells transfected with the ""large"" subunit of the isoform 4",listed as Ac-VVDC-NH2,significant decrease in the tumour growth

# Source: patent publication US20230341403A1, “METHODS AND KITS FOR THE DIAGNOSIS OF LUNG CANCER” (priority 2020, published 2023)
